Where “and” joins values, the source holds several entries; their conditions need not be identical. Equal values may be shown once. Toxic doses and inconclusive results are not listed. Residues, ends and D or L forms follow the SMILES beside them. *: point of attachment. Cbz = O=C(OCc1ccccc1)*
Test system: BDF1 mice, P388 leukemia ip, median survival T/C
Experiment: NCI In Vivo Anticancer Drug Screen. Data for tumor model P388 Leukemia (intraperitoneal) in B6D2F1 (BDF1) mice
Settings: endpoint: median survival time, higher = longer survival
In short: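 Reported as T/C, where T is the survival measurement in dosed animals and C the same measurement in vehicle controls.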

[1] = dose: 100.0 mg/kg/injection, schedule: Q04DX003 (ip), vehicle: saline
[2] = dose: 200.0 mg/kg/injection, schedule: Q04DX003 (ip), vehicle: saline
[3] = dose: 400.0 mg/kg/injection, schedule: Q04DX003 (ip), vehicle: saline
[4] = dose: 25.0 mg/kg/injection, schedule: Q04DX003 (ip), vehicle: saline with Tween-80
[5] = dose: 50.0 mg/kg/injection, schedule: Q04DX003 (ip), vehicle: saline with Tween-80
[6] = dose: 100.0 mg/kg/injection, schedule: Q01DX009 (ip), vehicle: saline
[7] = dose: 200.0 mg/kg/injection, schedule: Q01DX009 (ip), vehicle: saline
[8] = dose: 400.0 mg/kg/injection, schedule: Q01DX009 (ip), vehicle: saline
[9] = dose: 100.0 mg/kg/injection, schedule: Q04DX003 (ip), vehicle: saline with Tween-80
[10] = dose: 50.0 mg/kg/injection, schedule: Q01DX009 (ip), vehicle: saline with Tween-80
[11] = dose: 100.0 mg/kg/injection, schedule: Q01DX009 (ip), vehicle: saline with Tween-80
[12] = dose: 200.0 mg/kg/injection, schedule: Q01DX009 (ip), vehicle: saline with Tween-80

COc1cccc2c1C(=O)c1c(O)c3c(c(O)c1C2=O)C[C@@](O)(C(=O)O)C[C@@H]3OC1CC(N)C(O)C(C)O1 (stereo partly drawn)
T/C (dose: 1.56 mg/kg/injection, schedule: Q01DX009 (ip), vehicle: water): 100 % of control | T/C (dose: 3.12 mg/kg/injection, schedule: Q01DX009 (ip), vehicle: water): 107 % of control and 109 % of control | T/C (dose: 6.25 mg/kg/injection, schedule: Q01DX009 (ip), vehicle: water): 93 % of control

CC1CCCC(C)(CO)O1 (stereo not drawn)
T/C [1]: 115 % of control | T/C [2]: 115 % of control | T/C [3]: 105 % of control

CCCCCCCCCC(=O)NC(CN1CCOCC1)C(=O)c1ccccc1 (stereo not drawn)
T/C (dose: 12.5 mg/kg/injection, schedule: Q04DX003 (ip), vehicle: saline with Tween-80): 95 % of control | T/C [4]: 98 % of control | T/C [5]: 100 % of control

COC(=O)C1(C)CCC(c2ccc(OC)cc2)C(CC(=O)O)C1=O (stereo not drawn)
T/C [6]: 95 % of control | T/C [1]: 100 % of control | T/C [7]: 104 % of control | T/C [2]: 119 % of control | T/C [8]: 109 % of control | T/C [3]: 96 % of control

CCCNC(=O)OCc1c(COC(=O)NCCC)c(-c2ccc(Cl)c(Cl)c2)n2c1CCC2
T/C (dose: 25.0 mg/kg/injection, schedule: Q01DX009 (ip), vehicle: other): 151 % of control | T/C (dose: 50.0 mg/kg/injection, schedule: Q01DX009 (ip), vehicle: other): 172 % of control

CCCCN(CCCC)CC(C)O (stereo not drawn)
T/C [4]: 100 % of control | T/C [5]: 104 % of control | T/C [9]: 100 % of control

Nc1ccccc1SC1CC(=O)N(c2ccc(I)cc2)C1=O (stereo not drawn)
T/C (dose: 12.5 mg/kg/injection, schedule: Q04DX003 (ip), vehicle: Klucel (hydroxypropylcellulose) (HPC)): 95 % of control | T/C (dose: 25.0 mg/kg/injection, schedule: Q01DX001 (ip), vehicle: Klucel (hydroxypropylcellulose) (HPC)): 108 % of control | T/C (dose: 25.0 mg/kg/injection, schedule: Q04DX003 (ip), vehicle: Klucel (hydroxypropylcellulose) (HPC)): 95 % of control | T/C (dose: 50.0 mg/kg/injection, schedule: Q01DX001 (ip), vehicle: Klucel (hydroxypropylcellulose) (HPC)): 104 % of control | T/C (dose: 50.0 mg/kg/injection, schedule: Q04DX003 (ip), vehicle: Klucel (hydroxypropylcellulose) (HPC)): 100 % of control | T/C (dose: 100.0 mg/kg/injection, schedule: Q01DX001 (ip), vehicle: Klucel (hydroxypropylcellulose) (HPC)): 108 % of control | T/C (dose: 100.0 mg/kg/injection, schedule: Q04DX003 (ip), vehicle: Klucel (hydroxypropylcellulose) (HPC)): 112 % of control

N#Cc1cnc(=S)n(-c2cc(C(F)(F)F)cc(C(F)(F)F)c2)c1N
T/C [10]: 101 % of control | T/C [11]: 115 % of control

Nc1ccn(C2CC(O)C(CO)O2)c(=O)n1 (stereo not drawn)
T/C (dose: 2.3 mg/kg/injection, schedule: Q01DX009 (ip), vehicle: water): 117 % of control | T/C (dose: 9.37 mg/kg/injection, schedule: Q01DX009 (ip), vehicle: water): 117 % of control | T/C (dose: 18.75 mg/kg/injection, schedule: Q01DX009 (ip), vehicle: water): 110 % of control

Cc1cc2nc3c(=O)[nH]c(=O)nc-3n(CC(O)C(O)C(O)C(O)CO)c2cc1C (stereo not drawn)
T/C (dose: 25.0 mg/kg/injection, schedule: Q01DX010 (ip), vehicle: saline): 109 % of control | T/C (dose: 50.0 mg/kg/injection, schedule: Q01DX010 (ip), vehicle: saline): 95 % of control and 100 % of control | T/C (dose: 100.0 mg/kg/injection, schedule: Q01DX010 (ip), vehicle: saline): 90 % of control and 95 % of control and 104 % of control | T/C (dose: 200.0 mg/kg/injection, schedule: Q01DX010 (ip), vehicle: saline): 100 % of control and 114 % of control | T/C (dose: 400.0 mg/kg/injection, schedule: Q01DX010 (ip), vehicle: saline): 104 % of control and 110 % of control and 114 % of control

C=CCOP(=O)(OCC=C)OCC=C
T/C (dose: 25.0 mg/kg/injection, schedule: Q01DX009 (ip), vehicle: Klucel (hydroxypropylcellulose) (HPC)): 100 % of control | T/C (dose: 50.0 mg/kg/injection, schedule: Q01DX009 (ip), vehicle: Klucel (hydroxypropylcellulose) (HPC)): 104 % of control | T/C (dose: 100.0 mg/kg/injection, schedule: Q01DX009 (ip), vehicle: Klucel (hydroxypropylcellulose) (HPC)): 104 % of control

COC(=O)C(C)=O
T/C [11]: 90 % of control | T/C [12]: 95 % of control | T/C (dose: 400.0 mg/kg/injection, schedule: Q01DX009 (ip), vehicle: saline with Tween-80): 90 % of control

CN1CC=C(N2CCOCC2)CC1
T/C (dose: 25.0 mg/kg/injection, schedule: Q04DX003 (ip), vehicle: saline): 120 % of control | T/C (dose: 50.0 mg/kg/injection, schedule: Q04DX003 (ip), vehicle: saline): 120 % of control | T/C [1]: 120 % of control

C1CN(P2(N3CC3)=NP(N3CC3)(N3CC3)=NP(N3CC3)(N3CC3)=N2)CCO1 (stereo not drawn)
T/C (dose: 6.25 mg/kg/injection, schedule: Q01DX009 (ip), vehicle: saline): 167 % of control and 195 % of control | T/C (dose: 12.5 mg/kg/injection, schedule: Q01DX009 (ip), vehicle: saline): 227 % of control and 200 % of control | T/C (dose: 25.0 mg/kg/injection, schedule: Q01DX009 (ip), vehicle: saline): 260 % of control and 155 % of control

CC(C)C(NC(=O)C1CCCN1C(=O)OCc1ccccc1)C(=O)O (stereo not drawn) (Cbz-Pro-Val-OH; configuration not given here)
T/C [9]: 104 % of control | T/C (dose: 200.0 mg/kg/injection, schedule: Q04DX003 (ip), vehicle: saline with Tween-80): 100 % of control | T/C (dose: 400.0 mg/kg/injection, schedule: Q04DX003 (ip), vehicle: saline with Tween-80): 100 % of control

O=C(NCCCl)NC1C(O)OC(CO)C(O)C1O (stereo not drawn)
T/C (dose: 25.0 mg/kg/injection, schedule: Q01DX009 (ip), vehicle: water): 109 % of control | T/C (dose: 50.0 mg/kg/injection, schedule: Q01DX009 (ip), vehicle: water): 120 % of control | T/C (dose: 50.0 mg/kg/injection, schedule: Q04DX003 (ip), vehicle: water): 101 % of control | T/C (dose: 100.0 mg/kg/injection, schedule: Q01DX009 (ip), vehicle: water): 92 % of control | T/C (dose: 100.0 mg/kg/injection, schedule: Q04DX003 (ip), vehicle: water): 86 % of control | T/C (dose: 200.0 mg/kg/injection, schedule: Q01DX009 (ip), vehicle: water): 91 % of control | T/C (dose: 200.0 mg/kg/injection, schedule: Q04DX003 (ip), vehicle: water): 109 % of control | T/C (dose: 400.0 mg/kg/injection, schedule: Q01DX009 (ip), vehicle: water): 94 % of control | T/C (dose: 400.0 mg/kg/injection, schedule: Q04DX003 (ip), vehicle: water): 101 % of control

OCCCN1CCCCC1CO (stereo not drawn)
T/C [7]: 165 % of control

COC(=O)C1=C(C)NC2(C)SC1C(C)C2C(=O)OC (stereo not drawn)
T/C [11]: 107 % of control | T/C [12]: 98 % of control

C[C@]12C=CC(=O)C=C1CC[C@@H]1[C@@H]2[C@@H](O)C[C@@]2(C)[C@H]1CC[C@]2(O)C(=O)COC(=O)CCC1CCCC1
T/C (dose: 25.0 mg/kg/injection, schedule: Q01DX009 (ip), vehicle: saline with Tween-80): 113 % of control | T/C [10]: 109 % of control | T/C [11]: 95 % of control and 100 % of control

COc1ccc2c(c1)CCC1C2CCC2(C)C(=O)OC(=O)C12 (stereo not drawn)
T/C (dose: 87.5 mg/kg/injection, schedule: Q01DX009 (sc), vehicle: steriod suspending solution): 91 % of control | T/C (dose: 100.0 mg/kg/injection, schedule: Q04DX003 (sc), vehicle: steriod suspending solution): 100 % of control | T/C (dose: 175.0 mg/kg/injection, schedule: Q01DX009 (sc), vehicle: steriod suspending solution): 100 % of control | T/C (dose: 200.0 mg/kg/injection, schedule: Q04DX003 (sc), vehicle: steriod suspending solution): 109 % of control | T/C (dose: 350.0 mg/kg/injection, schedule: Q01DX009 (sc), vehicle: steriod suspending solution): 95 % of control | T/C (dose: 400.0 mg/kg/injection, schedule: Q04DX003 (sc), vehicle: steriod suspending solution): 95 % of control

CC(N)C(=O)O (stereo not drawn)
T/C [6]: 91 % of control | T/C [1]: 88 % of control | T/C [7]: 108 % of control | T/C [2]: 100 % of control | T/C [8]: 100 % of control

COc1ccc(NCCOc2ccccc2Br)cc1
T/C (dose: 100.0 mg/kg/injection, schedule: Q01DX009 (ip), vehicle: other): 109 % of control | T/C (dose: 400.0 mg/kg/injection, schedule: Q01DX009 (ip), vehicle: other): 118 % of control

CCCCN(CCO)C(C#CC(C)(C)O)C(C)C (stereo not drawn)
T/C (dose: 50.0 mg/kg/injection, schedule: Q01DX001 (ip), vehicle: saline sonified): 110 % of control | T/C (dose: 100.0 mg/kg/injection, schedule: Q01DX001 (ip), vehicle: saline sonified): 110 % of control | T/C (dose: 200.0 mg/kg/injection, schedule: Q01DX001 (ip), vehicle: saline sonified): 105 % of control

— PubChem BioAssay AID328 (DTP/NCI, 2004)
